Tests used:
[1] = comparison value; cited from earlier work
[2] = Xenon binding by fluorescence quenching; details: 293 K, phosphate buffer
Procedure: Steady-state fluorescence spectra were acquired using a Varian Cary Eclipse fluorimeter equipped with a Peltier multicell holder for temperature control. Concentration measurements necessary for fluorescence work were obtained using an Agilent 8453 UV-Vis spectrophotometer. Xenon binding determination by fluorescence quenching was performed. The quantum yield of tri-acid cryptophane was measured relative to tryptophan.
The xenon affinity of tricarboxylate cryptophane was studied by fluorescence quenching (FIG. 2) and isothermal titration calorimetry (ITC) (FIG. 3). […] As in a previous fluorescence quenching study with TTPC, temperature-equilibrated solutions of xenon-saturated water were added sequentially by syringe to a septum-sealed fluorescence cuvette and fluorescence intensity measurements were taken. […]
A saturated xenon solution at 310 K ([Xe]=3.3 mM) was titrated into the septum-sealed cuvette by gas-tight syringe. […] In all cases, fluorescence spectra were collected after thermal equilibration at 293 K (FIG. 2)
The fluorescence maxima were fitted to a single-site binding model using the following relationship.
At xenon saturation, [Xe]=5.05 mM at 293 K and 1 atm, the cryptophane fluorescence was half quenched (Fo/F=2). No cryptophane impurities or concentration dependent phenomena were observed that might also contribute to partial fluorescence quenching. […]

[3] = Xenon binding by isothermal titration calorimetry (ITC) in phosphate buffer
Procedure: ITC samples were prepared and experiments were performed using a MicroCal VP-ITC titration microcalorimeter (Northampton, Mass.) at 293 K. Standard protocols and data analysis were used. Control enthalpograms are given in the appended figures.
In order to confirm the association constants obtained by fluorescence quenching, ITC experiments were performed.
(§1) Xenon binding was also determined by isothermal titration calorimetry (ITC), which directly measured the heat released during Xe association. ITC measurements were undertaken in 20 mM, pH 7.5 phosphate buffer at 293 K and 310 K as well as in human plasma at 310 K (FIG. 3).
The association constants obtained from fits of ITC data at 293 K (KA=1.73×10^4 M^−1, Table 5) and fluorescence quenching were in excellent agreement. […] This was likely a consequence of the 20 water molecules that make up the first solvation sphere of the Xe atom in aqueous solution.

[4] = Aqueous solubility (visual observation of precipitation, dissolution in aqueous base); details: visual observation of precipitation during titration
From the text: Steric congestion near the carboxylic acid group decreases acidity by preventing efficient solvation of the carboxylate anion. […] Each acid group attached to TAAC can be approximated as being an acetic acid attached to a ˜1 nm diameter nonpolar sphere. Water molecules surrounding the nonpolar cryptophane surface must be ordered, a consequence of the hydrophobic effect. Carboxylate solvation must directly compete with this ordered solvation sphere necessary for the cryptophane core.

[5] = Xenon binding by ITC in human plasma; details: Plasma 310 K
Procedure: as §1
From Table 5 and the known thermodynamics of xenon partitioning into water, an upper limit of ΔH=−7.5 kcal/mol was calculated for the enthalpy of xenon binding to I. Thus, the measured ΔH of −6.04 kcal/mol, although larger than in buffer, appeared reasonable.

human isozyme II (CAII) = human isozyme II (CAII) (Homo sapiens, UniProt P00918); test: Binding to carbonic anhydrase II in solution (ITC); details: read-out: KD against CAII
From the text: The ^129Xe isotope has a spin-½ nucleus, a >200 ppm chemical shift window in water, and a natural isotopic abundance of 26% (commercially available up to 86%), which makes it an appealing biomolecular probe for MRI. Moreover, ^129Xe can be laser polarized to enhance MRI signals ˜10,000-fold.

[6] = 293 K, 20 mM pH 7.5 phosphate buffer

Compound: COc1ccccc1OCC(=O)O [2-(2-methoxyphenoxy)acetic acid]
- pKa of analogous acid (comparison) [1]: 3.23

Compound: COc1cc2c3cc1OCCOc1cc4c(cc1OCC(=O)O)Cc1cc5c(OCC(=O)O)cc1Cc1cc(c(OCC(=O)O)cc1C4)OCCOc1cc(c(cc1OC)C3)Cc1cc(OC)c(cc1C2)OCCO5 [TAAC, Tri-Acetic Acid Cryptophane]
- association constant (Xe) by fluorescence quenching [2]: 33,000±2000 M^−1
- additional stabilization of the Xe@TAAC complex relative to Xe@TTPC ([3]; 293 K): -0.37 kcal/mol
- xenon association constant KA by ITC [3, 6]: 33,000±3000 M^−1
- ΔG of xenon binding [3, 6]: -6.09 kcal/mol
- ΔH of xenon binding [3, 6]: -4.3 ± 0.7 kcal/mol
- ΔS of xenon binding [3, 6]: 5.9 cal*mol^−1*K^−1
- xenon association constant ([3]; 293 K, by ITC and fluorescence quenching assay): 33,000 M^−1
- xenon association constant ([3]; 310 K, extrapolated from the 293 K value): ~50,000 M^−1
- KA ([3]; ITC at 293 K (Table 2)): 3.33 ± 0.28 M^−1 × 10^4
- TΔS ([3]; ITC at 293 K (Table 2)): 1.72 kcal/mol
- ΔG ([3]; ITC at 293 K (Table 2)): -6.06 kcal/mol
- ΔH ([3]; ITC at 293 K (Table 2)): -4.34 ± 0.66 kcal/mol
- pKa (Acid-base titration): 4.1
- deprotonations required for aqueous solubility [4]: required all three acids to be deprotonated for aqueous solubility

Compound: tri-triazole propionate cryptophane [TTPC]
- association constant (Xe) by fluorescence quenching [2]: 17,000±1800 M^−1
- KA ([3]; Buffer 293 K): 1.73 ± 0.17 M^−1 × 10^4
- TΔS ([3]; Buffer 293 K): 2.55 kcal/mol
- ΔG ([3]; Buffer 293 K): -5.69 kcal/mol
- ΔH ([3]; Buffer 293 K): -3.14 ± 0.20 kcal/mol
- KA ([3]; Buffer 310 K): 3.01 ± 0.26 M^−1 × 10^4
- TΔS ([3]; Buffer 310 K): 2.80 kcal/mol
- ΔG ([3]; Buffer 310 K): -6.36 kcal/mol
- ΔH ([3]; Buffer 310 K): -3.56 ± 0.13 kcal/mol
- KA ([3]; ITC at 293 K (Table 2)): 1.70 M^−1 × 10^4
- TΔS ([3]; ITC at 293 K (Table 2)): 2.55 kcal/mol
- ΔG ([3]; ITC at 293 K (Table 2)): -5.69 kcal/mol
- ΔH ([3]; ITC at 293 K (Table 2)): -3.14 kcal/mol
- upper limit of ΔH for the enthalpy of xenon binding ([3]; calculated from Table 5 and known thermodynamics of xenon partitioning into water): ≤ -7.5 kcal/mol
- ΔS of xenon binding ([3]; phosphate buffer, 293 and 310 K): 9.0 cal/mol K
- KA [5]: 2.19 ± 0.22 M^−1 × 10^4
- TΔS [5]: 0.12 kcal/mol
- TΔS (contribution of entropy) [5]: 0.12
- measured ΔH of xenon binding [5]: -6.04 kcal/mol
- ΔG [5]: -6.16 kcal/mol
- ΔH [5]: -6.04 ± 0.33 kcal/mol
- Kd (human isozyme II (CAII)): 60 ± 20 nM

From patent US8222022B2, “Tri-functionalized cryptophane biosensors” (The Trustees of the University of Pennsylvania, priority 2008, dated 2012)
